3 compounds from US4419123A, “Herbicidal 4-trifluoromethyl-3'-carbon-substituted-4'-substituted diphenyl ethers” (Rohm and Haas Company, priority 1981, dated 1983) can be followed below.

Data set [1] relates to soybeans. Nature of the data set: Crop tolerance (selective herbicidal activity), soybeans. It counts as in vivo. To be noted: preemergence applications.
Data set [2] in a line: Postemergence herbicidal activity (% control) against monocot weeds. It counts as in vivo. To be noted: post-emergence, 336 h, average, about two weeks after application, read-out: Herbicidal activity (% control), postemergence, monocots; for activity at 2241.7 g/ha: 2 lb./A.; for activity at 4483.4 g/ha: 4 lb./A. From the text:
(§1) barnyardgrass (Echinochloa crusgalli) crabgrass (Digitaria spp.) nutsedge (Cyperus esculentus)
(§2) At 2 and 4 pounds per acre:
(§3) **Bermudagrass (Cynodon dactylon)
(§4) *downy brome (Bromus tectorum) foxtail (Setaria faberii)
(§5) Johnsongrass (Sorghum halepense) […]
(§6) quackgrass (Agropyron repens)
(§7) *ryegrass (Lolium perenne)
(§8) *wild oats (Avena factua)
(§9) *yellow millet (Panicum miliaceum)
(§10) The following test procedure is employed.

Data set [3] relates to snapbeans. Nature of the data set: Crop tolerance (selective herbicidal activity), snapbeans. It counts as in vivo. The note with it: preemergence applications. The method, then:
as §10
(§11) Following the general test procedure of Example 37, diphenyl ethers are evaluated for significant tolerance (as shown by 50% or less kill of the test crop at levels of application which give more than 50% kill of many or all of the weeds of Example 73) towards some or all of the following common agronomic crops (not all compounds tested against all crops): alfalfa, snapbeans, corn, cotton, cucumbers, peanuts, rape, rice, safflower, soybeans, tomatoes, and wheat.

Data set [4] is described as follows: Preemergence herbicidal activity (% control) against monocot weeds. It counts as in vivo. To be noted: pre-emergence, 336 h, average, about two weeks after application, read-out: Herbicidal activity (% control), preemergence, monocots; for activity at 2241.7 g/ha: 2 lb./A.; for activity at 4483.4 g/ha: 4 lb./A.
Description: as §1, §2, §3, §4, §5, §6, §7, §8, §9, §10

The subject of data set [5] is corn. In words: Crop tolerance (selective herbicidal activity), corn. It counts as in vivo. To be noted: postemergence applications.
A short description of data set [6]: Preemergence herbicidal activity (% control) against dicot weeds. To be noted: pre-emergence, 336 h; for activity at 2241.7 g/ha: read-out: Herbicidal activity (% control), preemergence, dicots, 2 lb./A., average, about two weeks after application; for activity at 4483.4 g/ha: read-out: Herbicidal activity (% control), preemergence, dicots, 4 lb./A., average, about two weeks after application.

A short description of data set [7]: Postemergence herbicidal activity (% control) against dicot weeds. To be noted: post-emergence, 336 h; for activity at 2241.7 g/ha: read-out: Herbicidal activity (% control), postemergence, dicots, 2 lb./A., average, about two weeks after application; for activity at 4483.4 g/ha: read-out: Herbicidal activity (% control), postemergence, dicots, 4 lb./A., average, about two weeks after application.

For data set [8], the system named is wheat. Nature of the data set: Crop tolerance (selective herbicidal activity), wheat. It counts as in vivo.
Data set [9] has as its system peanuts. Nature of the data set: Crop tolerance (selective herbicidal activity), peanuts. It counts as in vivo. To be noted: preemergence applications.
The subject of data set [10] is rice. In words: Crop tolerance (selective herbicidal activity), rice. It counts as in vivo.
Data set [11] has as its system cotton. Nature of the data set: Crop tolerance (selective herbicidal activity), cotton. It counts as in vivo. To be noted: preemergence applications. The method, then:
as §10, §11

The subject of data set [12] is Monocots (barnyardgrass, Bermudagrass, crabgrass, downy brome, foxtail, Johnsongrass, nutsedge, quackgrass, ryegrass, wild oats, yellow millet). Nature of the data set: Postemergence herbicidal activity (% control) against monocot weeds. It counts as in vivo. The note with it: average, about two weeks after application.
Description: as §1, §2, §3, §4, §5, §6, §7, §8, §9, §10

The test system is the same in data set [13]. Nature of the data set: Preemergence herbicidal activity (% control) against monocot weeds. It counts as in vivo. The note with it: average, about two weeks after application.
Description: as §1, §2, §3, §4, §5, §6, §7, §8, §9, §10

In data set [14] the test system is Dicots (bindweed, cocklebur, coffeeweed, curly dock, lambsquarters, morningglory, pigweed, ragweed, smartweed, tomato, velvetleaf, wild carrot, wild mustard). Nature of the data set: Preemergence herbicidal activity (% control) against dicot weeds. The note with it: average, about two weeks after application.
Data set [15] has the same test system. In words: Postemergence herbicidal activity (% control) against dicot weeds. To be noted: average, about two weeks after application.

Regarding `CCOC(=O)C(C)Oc1cc(Oc2ccc(C(F)(F)F)cc2Cl)ccc1[N+](=O)[O-]` (stereo not drawn) [Example 26, 2-Chloro-α,α,α-trifluoro-p-tolyl-3-(1-carbethoxyethoxy)-4-nitrophenyl ether], the Tolerance to soybeans result in data set [1] is “Tolerance (significant tolerance (as shown by 50% or less kill of the test crop at levels of application which give more than 50% kill of many or all of the weeds of Example 73))”. Moreover, the activity at 2241.7 g/ha in data set [2] worked out at 93%; in data set [4], 75%; in [6], 99%; in data set [7] it was 100%. Further, the activity at 4483.4 g/ha in [2] was 99%; in [4], 98%; in data set [6], 100%; in data set [7] it was 100%. The Tolerance to snapbeans entry in [3] was “Tolerance (significant tolerance (as shown by 50% or less kill of the test crop at levels of application which give more than 50% kill of many or all of the weeds of Example 73))”. For the same compound, in data set [5], the Tolerance to corn result is “Tolerance (significant tolerance (as shown by 50% or less kill of the test crop at levels of application which give more than 50% kill of many or all of the weeds of Example 73))”. In [8] (preemergence applications), the Tolerance to wheat entry is on record as “Tolerance (significant tolerance (as shown by 50% or less kill of the test crop at levels of application which give more than 50% kill of many or all of the weeds of Example 73))”.

As to `C#CC(C)Oc1cc(Oc2ccc(C(F)(F)F)cc2Cl)ccc1[N+](=O)[O-]` (stereo not shown) [Example 30], the Tolerance to soybeans entry in [1] was “Tolerance (significant tolerance (as shown by 50% or less kill of the test crop at levels of application which give more than 50% kill of many or all of the weeds of Example 73))”. The activity at 2241.7 g/ha amounted to 91% in data set [2], 78% in [4], 94% in data set [6] and 100% in data set [7]. The activity at 4483.4 g/ha in data set [2] is 75%; in data set [4] it was 81%; in [6], 99%; in [7], 100%. The Tolerance to peanuts result in [9] is recorded as “Tolerance (significant tolerance (as shown by 50% or less kill of the test crop at levels of application which give more than 50% kill of many or all of the weeds of Example 73))”. Further, the Tolerance to rice entry in data set [10] (postemergence applications or applications on transplanted rice) and in data set [10] (preemergence applications) was “Tolerance (significant tolerance (as shown by 50% or less kill of the test crop at levels of application which give more than 50% kill of many or all of the weeds of Example 73))” each time. Besides, the Tolerance to cotton entry in data set [11] is recorded as “Tolerance (significant tolerance (as shown by 50% or less kill of the test crop at levels of application which give more than 50% kill of many or all of the weeds of Example 73))”. The Tolerance to wheat entry in data set [8] (postemergence applications) is recorded as “Tolerance (significant tolerance (as shown by 50% or less kill of the test crop at levels of application which give more than 50% kill of many or all of the weeds of Example 73))”.

Regarding `O=C([O-])c1cc(Oc2ccc(C(F)(F)F)cc2Cl)ccc1[N+](=O)[O-].[Na+]` [Example 48A, Sodium 5-(2-Chloro-4-trifluoromethylphenoxy)-2-nitrobenzoate], the “Herbicidal activity (% control), postemergence, monocots” value in [12] (2 lb./A.) stood at 86%; in data set [12] (4 lb./A.), 92%. For the same compound, the “Herbicidal activity (% control), preemergence, monocots” value amounted to 89% in data set [13] (2 lb./A.) and 99% in [13] (4 lb./A.). In addition, the “Herbicidal activity (% control), preemergence, dicots” value in [14] (2 lb./A.) was 84%; in [14] (4 lb./A.), 98%. Besides, the results for the “Herbicidal activity (% control), postemergence, dicots” value in data set [15] (2 lb./A.) and in data set [15] (4 lb./A.) were 98% and 100%, respectively.
